Drawing on PubChem BioAssay AID212 (DTP/NCI, 2004), this text covers T/C for twelve compounds.

Several values for one entry are separate records, joined by “and”; a condition that tells them apart may be missing. Equal entries are not always repeated. Results filed as inconclusive are left out.

The assay has as its system BDF1 mice, colon carcinoma 38 sc, T/C %. The assay can be described thus: NCI In Vivo Anticancer Drug Screen. Data for tumor model Colon Carcinoma 38 (subcutaneous) in B6D2F1 (BDF1) mice. In a few lines: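 Transplantable tumor in mice; compound-treated vs vehicle-dosed controls. Measured survival or tumor size; value = T ÷ C.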
Setting [1] is: endpoint: median tumor weight (est.), dose: 6.25 mg/kg/injection, schedule: Q07DX002 (ip), vehicle: saline, higher = larger tumour.
Where [2] appears, read: endpoint: median tumor weight (est.), dose: 12.5 mg/kg/injection, schedule: Q07DX002 (ip), vehicle: saline, higher = larger tumour.
Where [3] appears, read: endpoint: median tumor weight (est.), dose: 100.0 mg/kg/injection, schedule: Q07DX002 (ip), vehicle: saline, higher = larger tumour.
Where [4] appears, read: endpoint: median tumor weight (est.), dose: 200.0 mg/kg/injection, schedule: Q07DX002 (ip), vehicle: saline, higher = larger tumour.
[5] abbreviates: endpoint: median tumor weight (est.), dose: 400.0 mg/kg/injection, schedule: Q07DX002 (ip), vehicle: Klucel (hydroxypropylcellulose) (HPC), higher = larger tumour.
Where [6] appears, read: endpoint: median tumor weight (est.), dose: 3.12 mg/kg/injection, schedule: Q07DX002 (ip), vehicle: saline with Tween-80, higher = larger tumour.
Where [7] appears, read: endpoint: median tumor weight (est.), dose: 6.25 mg/kg/injection, schedule: Q07DX002 (ip), vehicle: saline with Tween-80, higher = larger tumour.
[8] abbreviates: endpoint: median tumor weight (est.), dose: 12.5 mg/kg/injection, schedule: Q07DX002 (ip), vehicle: saline with Tween-80, higher = larger tumour.
Where [9] appears, read: endpoint: median tumor weight (est.), dose: 25.0 mg/kg/injection, schedule: Q07DX002 (ip), vehicle: saline with Tween-80, higher = larger tumour.
Setting [10] is: endpoint: median tumor weight (est.), dose: 200.0 mg/kg/injection, schedule: Q07DX002 (ip), vehicle: saline with Tween-80, higher = larger tumour.
The mark [11] stands for this setting: endpoint: median tumor weight (est.), dose: 400.0 mg/kg/injection, schedule: Q07DX002 (ip), vehicle: saline with Tween-80, higher = larger tumour.

With `O=C1c2ccccc2C(=O)c2c(NCCNCCO)ccc(NCCNCCO)c21`, the T/C was 110 % of control (endpoint: median survival time, dose: 20.0 mg/kg/injection, schedule: Q04DX004 (ip), vehicle: saline, higher = longer survival); 110 % of control (endpoint: median survival time, dose: 40.0 mg/kg/injection, schedule: Q04DX004 (ip), vehicle: saline, higher = longer survival); 120 % of control (endpoint: median survival time, dose: 80.0 mg/kg/injection, schedule: Q04DX004 (ip), vehicle: saline, higher = longer survival); 89 % of control (endpoint: median tumor weight (est.), dose: 1.0 mg/kg/injection, schedule: Q07DX002 (ip), vehicle: saline, higher = larger tumour); 47 % of control and 64 % of control (endpoint: median tumor weight (est.), dose: 1.5 mg/kg/injection, schedule: Q07DX003 (ip), vehicle: saline with Tween-80, higher = larger tumour); 77 % of control (endpoint: median tumor weight (est.), dose: 2.0 mg/kg/injection, schedule: Q07DX002 (ip), vehicle: saline, higher = larger tumour). The T/C reads like this: (endpoint: median tumor weight (est.), dose: 3.0 mg/kg/injection, schedule: Q07DX003 (ip), vehicle: saline with Tween-80, higher = larger tumour) 81 % of control; (endpoint: median tumor weight (est.), dose: 3.0 mg/kg/injection, schedule: Q07DX003 (ip), vehicle: saline, higher = larger tumour) 59 % of control and 72 % of control; (endpoint: median tumor weight (est.), dose: 4.0 mg/kg/injection, schedule: Q07DX002 (ip), vehicle: acid diluted with saline, higher = larger tumour) 82 % of control; (endpoint: median tumor weight (est.), dose: 4.0 mg/kg/injection, schedule: Q07DX002 (ip), vehicle: saline, higher = larger tumour) 66 % of control; (endpoint: median tumor weight (est.), dose: 6.0 mg/kg/injection, schedule: Q07DX003 (ip), vehicle: saline with Tween-80, higher = larger tumour) 11 % of control; (endpoint: median tumor weight (est.), dose: 8.0 mg/kg/injection, schedule: Q07DX002 (ip), vehicle: Klucel (hydroxypropylcellulose) (HPC), higher = larger tumour) 107 % of control. For the same compound, the T/C runs as follows: (endpoint: median tumor weight (est.), dose: 8.0 mg/kg/injection, schedule: Q07DX002 (ip), vehicle: acid diluted with saline, higher = larger tumour) 70 % of control; (endpoint: median tumor weight (est.), dose: 8.0 mg/kg/injection, schedule: Q07DX002 (ip), vehicle: saline, higher = larger tumour) 82 % of control; (endpoint: median tumor weight (est.), dose: 8.0 mg/kg/injection, schedule: Q07DX003 (ip), vehicle: Klucel (hydroxypropylcellulose) (HPC), higher = larger tumour) 65 % of control; (endpoint: median tumor weight (est.), dose: 8.0 mg/kg/injection, schedule: Q07DX003 (ip), vehicle: water, higher = larger tumour) 56 % of control; (endpoint: median tumor weight (est.), dose: 16.0 mg/kg/injection, schedule: Q07DX002 (ip), vehicle: Klucel (hydroxypropylcellulose) (HPC), higher = larger tumour) 120 % of control; (endpoint: median tumor weight (est.), dose: 16.0 mg/kg/injection, schedule: Q07DX002 (ip), vehicle: acid diluted with saline, higher = larger tumour) 39 % of control. Besides, the T/C is, setting by setting: (endpoint: median tumor weight (est.), dose: 16.0 mg/kg/injection, schedule: Q07DX002 (ip), vehicle: saline, higher = larger tumour) 48 % of control; (endpoint: median tumor weight (est.), dose: 16.0 mg/kg/injection, schedule: Q07DX003 (ip), vehicle: Klucel (hydroxypropylcellulose) (HPC), higher = larger tumour) 54 % of control; (endpoint: median tumor weight (est.), dose: 16.0 mg/kg/injection, schedule: Q07DX003 (ip), vehicle: water, higher = larger tumour) 47 % of control; (endpoint: median tumor weight (est.), dose: 25.0 mg/kg/injection, schedule: Q07DX003 (ip), vehicle: Klucel (hydroxypropylcellulose) (HPC), higher = larger tumour) 46 % of control; (endpoint: median tumor weight (est.), dose: 25.0 mg/kg/injection, schedule: Q07DX003 (iv), vehicle: Klucel (hydroxypropylcellulose) (HPC), higher = larger tumour) 4 % of control and 18 % of control and 25 % of control; (endpoint: median tumor weight (est.), dose: 32.0 mg/kg/injection, schedule: Q07DX002 (ip), vehicle: Klucel (hydroxypropylcellulose) (HPC), higher = larger tumour) 65 % of control. The T/C reads like this: (endpoint: median tumor weight (est.), dose: 32.0 mg/kg/injection, schedule: Q07DX002 (ip), vehicle: acid diluted with saline, higher = larger tumour) 4 % of control; (endpoint: median tumor weight (est.), dose: 32.0 mg/kg/injection, schedule: Q07DX002 (ip), vehicle: saline, higher = larger tumour) 10 % of control; (endpoint: median tumor weight (est.), dose: 32.0 mg/kg/injection, schedule: Q07DX003 (ip), vehicle: Klucel (hydroxypropylcellulose) (HPC), higher = larger tumour) 52 % of control; (endpoint: median tumor weight (est.), dose: 32.0 mg/kg/injection, schedule: Q07DX003 (ip), vehicle: water, higher = larger tumour) 28 % of control; (endpoint: median tumor weight (est.), dose: 50.0 mg/kg/injection, schedule: Q07DX003 (ip), vehicle: Klucel (hydroxypropylcellulose) (HPC), higher = larger tumour) 45 % of control; (endpoint: median tumor weight (est.), dose: 50.0 mg/kg/injection, schedule: Q07DX003 (iv), vehicle: Klucel (hydroxypropylcellulose) (HPC), higher = larger tumour) 11 % of control and 17 % of control. The T/C (endpoint: median tumor weight (est.), dose: 64.0 mg/kg/injection, schedule: Q07DX002 (ip), vehicle: Klucel (hydroxypropylcellulose) (HPC), higher = larger tumour) is 26 % of control.

For the compound `CCN(CC)CCC(=O)c1ccccc1`, the T/C reads like this: under setting [1], 85 % of control; under setting [2], 118 % of control and 108 % of control; (endpoint: median tumor weight (est.), dose: 12.5 mg/kg/injection, schedule: Q07DX002 (ip), vehicle: suspension in saline, higher = larger tumour) 122 % of control; (endpoint: median tumor weight (est.), dose: 25.0 mg/kg/injection, schedule: Q07DX002 (ip), vehicle: suspension in saline, higher = larger tumour) 80 % of control; (endpoint: median tumor weight (est.), dose: 50.0 mg/kg/injection, schedule: Q07DX002 (ip), vehicle: suspension in saline, higher = larger tumour) 85 % of control; under setting [3], 108 % of control.

For `O=C(O)CCc1cccc2c(=O)cc(-c3ccccc3)oc12`, the T/C is 60 % of control under setting [3]; 100 % of control under setting [4]; 120 % of control (endpoint: median tumor weight (est.), dose: 400.0 mg/kg/injection, schedule: Q07DX002 (ip), vehicle: saline, higher = larger tumour).

Consider `CC1=C(O)C(=O)[C@@H]2O[C@@H]2C1=O`, for which the T/C by setting is: (endpoint: median tumor weight (est.), dose: 3.12 mg/kg/injection, schedule: Q07DX002 (ip), vehicle: saline, higher = larger tumour) 90 % of control; under setting [1], 106 % of control; under setting [2], 71 % of control.

In the case of `Cc1cc(SCC(=O)c2ccc(Br)cc2)cc(C)[o+]1`, the T/C was 122 % of control under setting [2]; 77 % of control and 101 % of control (endpoint: median tumor weight (est.), dose: 25.0 mg/kg/injection, schedule: Q07DX002 (ip), vehicle: saline, higher = larger tumour); 111 % of control and 107 % of control (endpoint: median tumor weight (est.), dose: 50.0 mg/kg/injection, schedule: Q07DX002 (ip), vehicle: saline, higher = larger tumour); 98 % of control and 100 % of control under setting [3]; 100 % of control under setting [4].

In the case of `CSc1ncc2ncn(C3OC(CO)C(O)C3O)c2n1` (stereo unspecified), the T/C by setting is: (endpoint: median tumor weight (est.), dose: 25.0 mg/kg/injection, schedule: Q07DX002 (ip), vehicle: Klucel (hydroxypropylcellulose) (HPC), higher = larger tumour) 194 % of control; under setting [5], 56 % of control.

`O=[n+]1c2ccccc2n([O-])c2ccccc21.[Cl][Ni][Cl]`: the T/C is 89 % of control under setting [6], 111 % of control under setting [7], 89 % of control under setting [8] and 97 % of control under setting [9].

As to `COc1c(O)c2c(c3cc(C(=O)N4CCc5c4c(O)c(OC)c4[nH]c(C(=O)N6CC7CC78C6=CC(=O)c6[nH]cc(C)c68)cc54)[nH]c13)CCN2C(N)=O` (stereo unspecified), the T/C was 122 % of control (endpoint: median tumor weight (est.), dose: 6.25 micrograms/kg/injection, schedule: Q07DX002 (ip), vehicle: DMSO, higher = larger tumour); 109 % of control (endpoint: median tumor weight (est.), dose: 25.0 micrograms/kg/injection, schedule: Q07DX002 (ip), vehicle: DMSO, higher = larger tumour); 89 % of control (endpoint: median tumor weight (est.), dose: 50.0 micrograms/kg/injection, schedule: Q07DX002 (ip), vehicle: DMSO, higher = larger tumour); 89 % of control (endpoint: median tumor weight (est.), dose: 67.0 micrograms/kg/injection, schedule: Q07DX002 (ip), vehicle: other, higher = larger tumour); 37 % of control (endpoint: median tumor weight (est.), dose: 100.0 micrograms/kg/injection, schedule: Q07DX002 (ip), vehicle: other, higher = larger tumour).

For `CCOc1cc2c(cc1C(C)c1ccc(OC)cc1)OCO2` (stereo unspecified), the T/C by setting is: (endpoint: median tumor weight (est.), dose: 50.0 mg/kg/injection, schedule: Q07DX002 (ip), vehicle: distilled water + Tween-80 + alcohol, higher = larger tumour) 72 % of control; (endpoint: median tumor weight (est.), dose: 100.0 mg/kg/injection, schedule: Q07DX002 (ip), vehicle: distilled water + Tween-80 + alcohol, higher = larger tumour) 100 % of control; (endpoint: median tumor weight (est.), dose: 400.0 mg/kg/injection, schedule: Q07DX002 (ip), vehicle: distilled water + Tween-80 + alcohol, higher = larger tumour) 100 % of control.

`CN1CCN(Cc2nc3cccc4c3c([n+]2[O-])-c2ccccc2-4)CC1`: the T/C runs as follows: under setting [6], 72 % of control; under setting [7], 58 % of control; under setting [8], 81 % of control and 98 % of control and 106 % of control; under setting [10], 65 % of control and 75 % of control; under setting [11], 79 % of control.

`CC1(C)CC1(Br)Br`: the T/C under setting [8] is 155 % of control; the T/C under setting [9] is 110 % of control and 96 % of control; the T/C (endpoint: median tumor weight (est.), dose: 50.0 mg/kg/injection, schedule: Q07DX002 (ip), vehicle: saline with Tween-80, higher = larger tumour) was 150 % of control; the T/C (endpoint: median tumor weight (est.), dose: 100.0 mg/kg/injection, schedule: Q07DX002 (ip), vehicle: saline with Tween-80, higher = larger tumour) is 124 % of control and 106 % of control; the T/C under setting [10] was 155 % of control; the T/C under setting [11] was 107 % of control.

As for `O=c1[nH]c(=O)n(C2CC(O)C(CO)O2)cc1Br` (stereo unspecified), the T/C reads like this: (endpoint: median tumor weight (est.), dose: 50.0 mg/kg/injection, schedule: Q07DX002 (ip), vehicle: Klucel (hydroxypropylcellulose) (HPC), higher = larger tumour) 112 % of control; under setting [5], 86 % of control and 87 % of control; (endpoint: median tumor weight (est.), dose: 800.0 mg/kg/injection, schedule: Q07DX002 (ip), vehicle: Klucel (hydroxypropylcellulose) (HPC), higher = larger tumour) 88 % of control.
